Reference: patent publication US9708314B2, “Heterocyclic amide compound” (NISSAN CHEMICAL INDUSTRIES, LTD., priority 2013, dated 2017)

Legend:
Assay type in all cases: in vivo
[1] = test system: Echinochloa oryzacola Vasing.; experiment: Test Example 2: herbicidal activity, application during weed generation in submerged conditions; conditions: Eighteenth Table; application herbicide amount 320 g/ha
How it was run: (§1)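 Alluvial soil in Wagner pots flooded to 4 cm water depth; seeds sown mixed, grown in greenhouse at 25–30 °C. At one- to two-leaf stage, emulsion diluted with water to the set rate (g/ha) was applied to the water surface. Effect scored 0–5 by herbicidal ratio three weeks later.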

Monochoria vaginalis = experiment: as above; conditions: Eighteenth Table; application herbicide amount 320 g/ha
How it was run: as §1

Scirpus juncoides = experiment: as above; conditions: Eighteenth Table; application herbicide amount 320 g/ha
How it was run: as §1

Triticum aestivum = experiment: Test Example 4: effect on crop by application to foliage (diluvial soil, plastic box); conditions: for e (Triticum aestivum) effect on crop: application to foliage, application herbicide amount 320 g/ha; for e: Application herbicide amount 320 g/ha, effect on crop
How it was run: (§2)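 Scores run from 0 (herbicidal ratio ≤5%) to 5 (≥90%, almost fully withered) and were assessed three weeks after foliar spraying. Seedlings had been raised for 14 days at 25-30° C in sterilized diluvial soil before treatment, with the emulsion diluted in water to the stated g/ha dose.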

Zea mays = experiment: as above; conditions: for b (Zea mays) effect on crop: application to foliage, application herbicide amount 320 g/ha; for b: Application herbicide amount 320 g/ha, effect on crop
How it was run: as §2

Brassica campestris L. = experiment: as above; conditions: for g (Brassica campestris L.) effect on crop: application to foliage, application herbicide amount 320 g/ha; for g: Application herbicide amount 320 g/ha, effect on crop
How it was run: as §2

[2] = test system: Beta vulgaris ssp. vulgaris; experiment: as above; conditions: for f (Beta vulgaris ssp. vulgaris) effect on crop: application to foliage, application herbicide amount 320 g/ha; for f: Application herbicide amount 320 g/ha, effect on crop
How it was run: as §2

Glycine max = experiment: as above; conditions: for c (Glycine max) effect on crop: application to foliage, application herbicide amount 320 g/ha; for c: Application herbicide amount 320 g/ha, effect on crop
How it was run: as §2

[3] = test system: directly sowed Oryza sativa; experiment: as above; conditions: for d (directly sowed Oryza sativa) effect on crop: application to foliage, application herbicide amount 320 g/ha; for d: Application herbicide amount 320 g/ha, effect on crop
How it was run: as §2

Veronica persica = experiment: Test Example 4: herbicidal effect by application to foliage (diluvial soil, plastic box); conditions: for R (Veronica persica) herbicidal effect: application to foliage, application herbicide amount 320 g/ha; for R: Application herbicide amount 320 g/ha
How it was run: as §2

Galium spurium = experiment: as above; conditions: for Q (Galium spurium) herbicidal effect: application to foliage, application herbicide amount 320 g/ha; for Q: Application herbicide amount 320 g/ha
How it was run: as §2

Avena fatua = experiment: as above; conditions: for I (Avena fatua) herbicidal effect: application to foliage, application herbicide amount 320 g/ha; for I: Application herbicide amount 320 g/ha
How it was run: as §2

Chenopodium album = experiment: as above; conditions: for O (Chenopodium album) herbicidal effect: application to foliage, application herbicide amount 320 g/ha; for O: Application herbicide amount 320 g/ha
How it was run: as §2

Digitaria ciliaris = experiment: as above; conditions: for F (Digitaria ciliaris) herbicidal effect: application to foliage, application herbicide amount 320 g/ha; for F: Application herbicide amount 320 g/ha
How it was run: as §2

Alopecurus myosuroides = experiment: as above; conditions: for J (Alopecurus myosuroides) herbicidal effect: application to foliage, application herbicide amount 320 g/ha; for J: Application herbicide amount 320 g/ha
How it was run: as §2

[4] = test system: Echinochloa crus-galli var. crus-galli; experiment: as above; conditions: for H (Echinochloa crus-galli var. crus-galli) herbicidal effect: application to foliage, application herbicide amount 320 g/ha; for H: Application herbicide amount 320 g/ha
How it was run: as §2

Abutilon theophrasti = experiment: as above; conditions: for M (Abutilon theophrasti) herbicidal effect: application to foliage, application herbicide amount 320 g/ha; for M: Application herbicide amount 320 g/ha
How it was run: as §2

Apera spica-venti. = experiment: as above; conditions: for L (Apera spica-venti.) herbicidal effect: application to foliage, application herbicide amount 320 g/ha; for L: Application herbicide amount 320 g/ha
How it was run: as §2

Lolium multiflorum Lam. = experiment: as above; conditions: for K (Lolium multiflorum Lam.) herbicidal effect: application to foliage, application herbicide amount 320 g/ha; for K: Application herbicide amount 320 g/ha
How it was run: as §2

Setaria viridis = experiment: as above; conditions: for G (Setaria viridis) herbicidal effect: application to foliage, application herbicide amount 320 g/ha; for G: Application herbicide amount 320 g/ha
How it was run: as §2

| Compound | A (Echinochloa oryzicola Vasing.) herbicidal ratio grade [1] | C (Monochoria vaginalis) herbicidal ratio grade (Monochoria vaginalis) | B (Scirpus juncoides) herbicidal ratio grade (Scirpus juncoides) | e (Triticum aestivum) effect on crop (Triticum aestivum) | b (Zea mays) effect on crop (Zea mays) | g (Brassica campestris L.) effect on crop (Brassica campestris L.) | f (Beta vulgaris ssp. vulgaris) effect on crop [2] | c (Glycine max) effect on crop (Glycine max) | d (directly sowed Oryza sativa) effect on crop [3] | R (Veronica persica) herbicidal effect (Veronica persica) | Q (Galium spurium) herbicidal effect (Galium spurium) | I (Avena fatua) herbicidal effect (Avena fatua) | O (Chenopodium album) herbicidal effect (Chenopodium album) | F (Digitaria ciliaris) herbicidal effect (Digitaria ciliaris) | J (Alopecurus myosuroides) herbicidal effect (Alopecurus myosuroides) | H (Echinochloa crus-galli var. crus-galli) herbicidal effect [4] | M (Abutilon theophrasti) herbicidal effect (Abutilon theophrasti) | L (Apera spica-venti.) herbicidal effect (Apera spica-venti.) | K (Lolium multiflorum Lam.) herbicidal effect (Lolium multiflorum Lam.) | G (Setaria viridis) herbicidal effect (Setaria viridis) | further results |
| --- | --- | --- | --- | --- | --- | --- | --- | --- | --- | --- | --- | --- | --- | --- | --- | --- | --- | --- | --- | --- | --- |
| COCCc1nnc(NC(=O)c2ccc(C(F)(F)F)n3c(C(C)C)nnc23)o1 [1-052] | 1 (Herbicidal ratio of 5% or more and less than 20%) | 0 (Herbicidal ratio of 5% or less (almost no effect)) | 1 (Herbicidal ratio of 5% or more and less than 20%) | 0 (Herbicidal ratio of 5% or less (almost no effect)) | 0 (Herbicidal ratio of 5% or less (almost no effect)) | 3 (Herbicidal ratio of 40% or more and less than 70%) | 3 (Herbicidal ratio of 40% or more and less than 70%) | 0 (Herbicidal ratio of 5% or less (almost no effect)) | 2 (Herbicidal ratio of 20% or more and less than 40%) | 3 (Herbicidal ratio of 40% or more and less than 70%) | 1 (Herbicidal ratio of 5% or more and less than 20%) | 0 (Herbicidal ratio of 5% or less (almost no effect)) | 5 (Herbicidal ratio of 90% or more (almost completely withered)) | 3 (Herbicidal ratio of 40% or more and less than 70%) | 1 (Herbicidal ratio of 5% or more and less than 20%) | 2 (Herbicidal ratio of 20% or more and less than 40%) | 4 (Herbicidal ratio of 70% or more and less than 90%) | 3 (Herbicidal ratio of 40% or more and less than 70%) | 1 (Herbicidal ratio of 5% or more and less than 20%) | 1 (Herbicidal ratio of 5% or more and less than 20%) |  |
| Cc1nnc(NC(=O)c2ccc(C(F)(F)F)n3c(C4CC4)nnc23)o1 [1-010] | 4 (Herbicidal ratio of 70% or more and less than 90%) | 4 (Herbicidal ratio of 70% or more and less than 90%) | 1 (Herbicidal ratio of 5% or more and less than 20%) | 1 (Herbicidal ratio of 5% or more and less than 20%) | 0 (Herbicidal ratio of 5% or less (almost no effect)) | 3 (Herbicidal ratio of 40% or more and less than 70%) | 5 (Herbicidal ratio of 90% or more (almost completely withered)) | 1 (Herbicidal ratio of 5% or more and less than 20%) | 4 (Herbicidal ratio of 70% or more and less than 90%) | 5 (Herbicidal ratio of 90% or more (almost completely withered)) | 1 (Herbicidal ratio of 5% or more and less than 20%) | 3 (Herbicidal ratio of 40% or more and less than 70%) | 5 (Herbicidal ratio of 90% or more (almost completely withered)) | 3 (Herbicidal ratio of 40% or more and less than 70%) | 2 (Herbicidal ratio of 20% or more and less than 40%) | 4 (Herbicidal ratio of 70% or more and less than 90%) | 5 (Herbicidal ratio of 90% or more (almost completely withered)) | 2 (Herbicidal ratio of 20% or more and less than 40%) | 1 (Herbicidal ratio of 5% or more and less than 20%) | 3 (Herbicidal ratio of 40% or more and less than 70%) |  |
| CC(C)c1nnc2c(C(=O)Nc3nnc(C(F)(F)F)o3)ccc(C(F)(F)F)n12 [1-100] | 4 (Herbicidal ratio of 70% or more and less than 90%) | 4 (Herbicidal ratio of 70% or more and less than 90%) | 3 (Herbicidal ratio of 40% or more and less than 70%) |  |  |  |  |  |  |  |  |  |  |  |  |  |  |  |  |  | e (Triticum aestivum): 0 (Herbicidal ratio of 5% or less (almost no effect)); b (Zea mays): 0 (Herbicidal ratio of 5% or less (almost no effect)); g (Brassica campestris L.): 0 (Herbicidal ratio of 5% or less (almost no effect)); f [2]: 3 (Herbicidal ratio of 40% or more and less than 70%); c (Glycine max): 0 (Herbicidal ratio of 5% or less (almost no effect)); d [3]: 1 (Herbicidal ratio of 5% or more and less than 20%); R (Veronica persica): 1 (Herbicidal ratio of 5% or more and less than 20%); Q (Galium spurium): 0 (Herbicidal ratio of 5% or less (almost no effect)); I (Avena fatua): 1 (Herbicidal ratio of 5% or more and less than 20%); O (Chenopodium album): 5 (Herbicidal ratio of 90% or more (almost completely withered)); F (Digitaria ciliaris): 3 (Herbicidal ratio of 40% or more and less than 70%); J (Alopecurus myosuroides): 0 (Herbicidal ratio of 5% or less (almost no effect)); H [4]: 4 (Herbicidal ratio of 70% or more and less than 90%); M (Abutilon theophrasti): 3 (Herbicidal ratio of 40% or more and less than 70%); L (Apera spica-venti.): 0 (Herbicidal ratio of 5% or less (almost no effect)); K (Lolium multiflorum Lam.): 0 (Herbicidal ratio of 5% or less (almost no effect)); G (Setaria viridis): 1 (Herbicidal ratio of 5% or more and less than 20%) |
| Cc1cc(-c2nnc3c(C(=O)Nc4nnc(C)o4)ccc(C(F)(F)F)n23)no1 [1-022] | 2 (Herbicidal ratio of 20% or more and less than 40%) | 0 (Herbicidal ratio of 5% or less (almost no effect)) | 2 (Herbicidal ratio of 20% or more and less than 40%) | 1 (Herbicidal ratio of 5% or more and less than 20%) | 0 (Herbicidal ratio of 5% or less (almost no effect)) | 2 (Herbicidal ratio of 20% or more and less than 40%) | 4 (Herbicidal ratio of 70% or more and less than 90%) | 2 (Herbicidal ratio of 20% or more and less than 40%) | 3 (Herbicidal ratio of 40% or more and less than 70%) | 4 (Herbicidal ratio of 70% or more and less than 90%) | 2 (Herbicidal ratio of 20% or more and less than 40%) | 1 (Herbicidal ratio of 5% or more and less than 20%) | 5 (Herbicidal ratio of 90% or more (almost completely withered)) | 4 (Herbicidal ratio of 70% or more and less than 90%) | 1 (Herbicidal ratio of 5% or more and less than 20%) | 5 (Herbicidal ratio of 90% or more (almost completely withered)) | 5 (Herbicidal ratio of 90% or more (almost completely withered)) | 1 (Herbicidal ratio of 5% or more and less than 20%) | 1 (Herbicidal ratio of 5% or more and less than 20%) | 3 (Herbicidal ratio of 40% or more and less than 70%) |  |
| Cc1nnc(NC(=O)c2ccc(C(F)(F)F)n3c(SCC(C)C)nnc23)o1 [1-093] | 3 (Herbicidal ratio of 40% or more and less than 70%) | 3 (Herbicidal ratio of 40% or more and less than 70%) | 3 (Herbicidal ratio of 40% or more and less than 70%) |  |  |  |  |  |  |  |  |  |  |  |  |  |  |  |  |  | e (Triticum aestivum): 0 (Herbicidal ratio of 5% or less (almost no effect)); b (Zea mays): 0 (Herbicidal ratio of 5% or less (almost no effect)); g (Brassica campestris L.): 3 (Herbicidal ratio of 40% or more and less than 70%); f [2]: 5 (Herbicidal ratio of 90% or more (almost completely withered)); c (Glycine max): 4 (Herbicidal ratio of 70% or more and less than 90%); d [3]: 3 (Herbicidal ratio of 40% or more and less than 70%); R (Veronica persica): 4 (Herbicidal ratio of 70% or more and less than 90%); Q (Galium spurium): 1 (Herbicidal ratio of 5% or more and less than 20%); I (Avena fatua): 1 (Herbicidal ratio of 5% or more and less than 20%); O (Chenopodium album): 5 (Herbicidal ratio of 90% or more (almost completely withered)); F (Digitaria ciliaris): 5 (Herbicidal ratio of 90% or more (almost completely withered)); J (Alopecurus myosuroides): 0 (Herbicidal ratio of 5% or less (almost no effect)); H [4]: 5 (Herbicidal ratio of 90% or more (almost completely withered)); M (Abutilon theophrasti): 4 (Herbicidal ratio of 70% or more and less than 90%); L (Apera spica-venti.): 1 (Herbicidal ratio of 5% or more and less than 20%); K (Lolium multiflorum Lam.): 1 (Herbicidal ratio of 5% or more and less than 20%); G (Setaria viridis): 3 (Herbicidal ratio of 40% or more and less than 70%) |
